Source: PubChem BioAssay AID2060600 (Molecular Pharmacology Branch, DTP, NCI, 2025)

Test system: 996289-038-R-J1-PDC complex spheroid viability
Experiment: Anticancer human tumor 996289-038-R-J1-PDC patient-derived colon adenocarcinoma cell line growth inhibition [CLK]
Details: for IC50: curve of first compound; for viability, T/C: stronger effect = lower value
Text: A high-throughput screen of multi-cell type tumor spheroids was designed to identify active combinations of […] and targeted small molecules. Complex spheroids include a stromal component modeled by human endothelial cells (HUVEC) and fibroblasts modeled by human mesenchymal stem cells (MSCs). The concentration ranges selected for each drug and investigational agent were based upon clinically achievable concentrations if the clinical Cmax of the agent was known.
Compounds. The drugs and investigational agents: cirtuvivint (SM08502; NSC835563), CC-671 (NSC850746), vemurafenib (NSC761431), tapotoclax (NSC804041), sotorasib (NSC818433), adagrasib (NSC831453), MRTX-1133 (NSC836407), BAY2416964 (NSC825713), copanlisib (NSC816437), inavolisib (NSC800729), abemaciclib (NSC768073), osimertinib (NSC779217), entinostat (NSC756642), eltanexor (KPT-8602, NSC794443), venetoclax (NSC766270), ceralasertib (NSC777638), bortezomib (NSC756655), olaparib (NSC753686), talazoparib (NSC767125), alisertib (NSC759677), peposertib (NSC802822), gemcitabine (NSC613327), 5-fluorouracil (NSC19893), SN-38 (NSC673596), oxaliplatin (NSC266046), paclitaxel (NSC125973), and doxorubicin (NSC123127), were obtained from the National Cancer Institute (NCI) Developmental Therapeutics Program Chemical Repository. The FDA-approved anticancer drug set is available from the Developmental Therapeutics Program at https://dtp.cancer.gov/organization/dscb/obtaining/available plates.htm. […] The stock solutions were prepared in dimethyl sulfoxide (DMSO, Sigma-Aldrich, St. Louis, MO, cat. D2650), except for the platinum complexes which were prepared in saline (Quality Biological, Gaithersburg, MD, cat. 114-055-101), at 800-fold the tested concentration and stored at -70 degrees C prior to their use. All drugs and investigational agents were tested over a range starting from a high concentration at or near the clinical Cmax and decreasing in half-log increments. If the clinical Cmax for an agent had not been determined, the highest concentration tested was 10 microM.
Cell Culture. All cells were maintained in an incubator at 37 degrees C and 5% CO2 with 95% humidity. The PDC lines were cultured according to standard operating procedures established by the NCI PDMR. Briefly, all PDCs were thawed and cultured in Matrigel-coated flasks prepared with a working solution of 1X Ham's F-12 nutrient mix, without supplementation (Invitrogen, Waltham, MA, cat. 11765054), 100 U/mL penicillin-streptomycin (Invitrogen, cat. 15140122), and 2.5% Matrigel (Corning Inc., Corning, NY, cat. 354248) for the first three passages. The 947758-054-R-J2-PDC line was cultured in 6B/Colon 1A media, which includes advanced DMEM/F-12 (Thermo Fisher Scientific, cat. 12634028), 10 mM HEPES (Thermo Fisher Scientific, cat. 15630080), 1X GlutaMAX supplement (Thermo Fisher Scientific, cat. 35050061), 0.1 mg/mL primocin (InvivoGen, cat. ant-pm-2), 10% defined fetal bovine serum, heat inactivated (HyClone Laboratories Inc., cat. SH30070.03HI), 1.25 mM N-Acetyl-L-cysteine (Sigma-Aldrich, cat. A9165), 10 mM nicotinamide (Sigma-Aldrich, cat. N0636), 1X B-27 supplement (Thermo Fisher Scientific, cat. 17504044), 1X N-2 supplement (Thermo Fisher Scientific, cat. 17502048), and 10 microM Y-27632 dihydrochloride (Tocris Bioscience, cat. 1254). The 876862-298-R-J1-PDC was cultured in 6E media, which includes all 6B/Colon 1A media components plus 50% L-WRN conditioned media (ATCC, cat. CRL-3276), 50 ng/mL recombinant human EGF recombinant protein (hEGF; Thermo Fisher Scientific, cat. PHG0311), 10 ng/mL recombinant human fibroblast growth factor 10 (hGFG-10; PeproTech, cat. 100-26), 1 ng/mL recombinant human fibroblast growth factor 2 (hFGF-2; PeproTech, cat. 100-18B), and 1 µM prostaglandin E2 (PGE2; Tocris, cat. 2296). The 227483-062-R1-J1-PDC line was cultured in Panc media, containing all 6E components except hFGF-2, with the addition of 500 nM SB-431542 (Selleckchem, cat. S1067) and 10 nM gastrin (Tocris, cat. 3006). […]

[1] = second compound 0.0316 µM, first compound 0.0316 µM
[2] = second compound 0.0316 µM, first compound 0.1 µM
[3] = second compound 0.0316 µM, first compound 0.316 µM
[4] = second compound 0.0316 µM, first compound 1 µM
[5] = second compound 0.1 µM, first compound 0.0316 µM
[6] = second compound 0.1 µM, first compound 0.1 µM
[7] = second compound 0.1 µM, first compound 0.316 µM
[8] = second compound 0.1 µM, first compound 1 µM
[9] = second compound 0.316 µM, first compound 0.0316 µM
[10] = second compound 0.316 µM, first compound 0.1 µM
[11] = second compound 0.316 µM, first compound 0.316 µM
[12] = second compound 0.316 µM, first compound 1 µM
[13] = second compound 1 µM, first compound 0.0316 µM
[14] = second compound 1 µM, first compound 0.1 µM
[15] = second compound 1 µM, first compound 0.316 µM
[16] = second compound 1 µM, first compound 1 µM
[17] = second compound 3.16 µM, first compound 0.0316 µM
[18] = second compound 3.16 µM, first compound 0.1 µM
[19] = second compound 3.16 µM, first compound 0.316 µM
[20] = second compound 3.16 µM, first compound 1 µM
[21] = second compound 10 µM, first compound 0.0316 µM
[22] = second compound 10 µM, first compound 0.1 µM
[23] = second compound 10 µM, first compound 0.316 µM
[24] = second compound 10 µM, first compound 1 µM
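Further: spheroids exposed to the agents for 7 days before readout.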

SMILES: CC(CO)NC(=O)c1cc(-c2ccc(Cl)cc2)nn(-c2cnn(C)c2)c1=O (centres undefined) + CN1CCN(c2cc(C(=O)Nc3cc4cc(-c5cnn(C)c5)ccc4cn3)ccn2)CC1
- IC50 (second compound 0.0316 µM): > 10000 nM
- IC50 (second compound 0.1 µM): > 10000 nM
- IC50 (second compound 0.316 µM): 8010 nM
- IC50 (second compound 1 µM): < 31.6 nM
- IC50 (second compound 3.16 µM): < 31.6 nM
- IC50 (second compound 10 µM): < 31.6 nM
- viability, T/C [1]: 105%
- viability, T/C [2]: 96.2%
- viability, T/C [3]: 95.3%
- viability, T/C [4]: 107%
- viability, T/C (second compound 0.0316 µM, first compound 3.16 µM): 102%
- viability, T/C (second compound 0.0316 µM, first compound 10 µM): 82.3%
- viability, T/C [5]: 107%
- viability, T/C [6]: 104%
- viability, T/C [7]: 89.8%
- viability, T/C [8]: 83.9%
- viability, T/C (second compound 0.1 µM, first compound 3.16 µM): 84.9%
- viability, T/C (second compound 0.1 µM, first compound 10 µM): 66.9%
- viability, T/C [9]: 75%
- viability, T/C [10]: 70.2%
- viability, T/C [11]: 67.3%
- viability, T/C [12]: 68.4%
- viability, T/C (second compound 0.316 µM, first compound 3.16 µM): 69.2%
- viability, T/C (second compound 0.316 µM, first compound 10 µM): 45.5%
- viability, T/C [13]: 8.41%
- viability, T/C [14]: 6.34%
- viability, T/C [15]: 6.26%
- viability, T/C [16]: 6.91%
- viability, T/C (second compound 1 µM, first compound 3.16 µM): 6.32%
- viability, T/C (second compound 1 µM, first compound 10 µM): 4.74%
- viability, T/C [17]: 1.59%
- viability, T/C [18]: 0.78%
- viability, T/C [19]: 2.09%
- viability, T/C [20]: 2.22%
- viability, T/C (second compound 3.16 µM, first compound 3.16 µM): 0.69%
- viability, T/C (second compound 3.16 µM, first compound 10 µM): 1.38%
- viability, T/C [21]: 1.12%
- viability, T/C [22]: 0.98%
- viability, T/C [23]: 0.62%
- viability, T/C [24]: 0.94%
- viability, T/C (second compound 10 µM, first compound 3.16 µM): 0.67%
- viability, T/C (second compound 10 µM, first compound 10 µM): 0.38%

SMILES: COc1c(OCCCN2CCOCC2)ccc2c3n(c(=NC(=O)c4cnc(N)nc4)nc12)CCN3 + CN1CCN(c2cc(C(=O)Nc3cc4cc(-c5cnn(C)c5)ccc4cn3)ccn2)CC1
- IC50 (second compound 0.0316 µM): 74.6 nM
- IC50 (second compound 0.1 µM): 37.7 nM
- IC50 (second compound 0.316 µM): 9.79 nM
- IC50 (second compound 1 µM): < 3.16 nM
- IC50 (second compound 3.16 µM): < 3.16 nM
- IC50 (second compound 10 µM): < 3.16 nM
- viability, T/C (second compound 0.0316 µM, first compound 0.00316 µM): 87.7%
- viability, T/C (second compound 0.0316 µM, first compound 0.01 µM): 88.8%
- viability, T/C [1]: 64.5%
- viability, T/C [2]: 43.9%
- viability, T/C [3]: 30.1%
- viability, T/C [4]: 18.7%
- viability, T/C (second compound 0.1 µM, first compound 0.00316 µM): 86%
- viability, T/C (second compound 0.1 µM, first compound 0.01 µM): 66.7%
- viability, T/C [5]: 56.4%
- viability, T/C [6]: 33.5%
- viability, T/C [7]: 24.8%
- viability, T/C [8]: 13.5%
- viability, T/C (second compound 0.316 µM, first compound 0.00316 µM): 56.9%
- viability, T/C (second compound 0.316 µM, first compound 0.01 µM): 50%
- viability, T/C [9]: 36.3%
- viability, T/C [10]: 21%
- viability, T/C [11]: 12.7%
- viability, T/C [12]: 8.17%
- viability, T/C (second compound 1 µM, first compound 0.00316 µM): 2.97%
- viability, T/C (second compound 1 µM, first compound 0.01 µM): 3.06%
- viability, T/C [13]: 3.03%
- viability, T/C [14]: 1.3%
- viability, T/C [15]: 1.59%
- viability, T/C [16]: 3.21%
- viability, T/C (second compound 3.16 µM, first compound 0.00316 µM): 0.97%
- viability, T/C (second compound 3.16 µM, first compound 0.01 µM): 0.95%
- viability, T/C [17]: 2.68%
- viability, T/C [18]: 0.71%
- viability, T/C [19]: 2.1%
- viability, T/C [20]: 1.27%
- viability, T/C (second compound 10 µM, first compound 0.00316 µM): 1.28%
- viability, T/C (second compound 10 µM, first compound 0.01 µM): 0.97%
- viability, T/C [21]: 0.74%
- viability, T/C [22]: 0.86%
- viability, T/C [23]: 0.56%
- viability, T/C [24]: 0.61%
